Assay results: patent publication US20150307520A1, “NOVEL HETEROARYL AND HETEROCYCLE COMPOUNDS, COMPOSITIONS AND METHODS THEREOF” (HUTCHISON MEDIPHARMA LIMITED, priority 2012, published 2015)

Tests used:
Type in all cases: biochemical
[1] = target: p110β/p85α (Homo sapiens, UniProt P42338); assay: Transcreener KINASE Assay, kinase inhibition of p110β/p85α; conditions: for PI3Kβ IH % @ 1 uM: 1 uM test compound; for IC50: read-out: PI3Kβ IC50
In short: (§1)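 Steps: compound (2% DMSO final) plus enzyme in HEPES/NaCl/EGTA/CHAPS/3 mM MgCl2/1 mM DTT buffer; start with PIP2/ATP addition (30 uM/10 uM solution); 80 min RT; add ADP detection mix, 60 min RT; read fluorescence polarization.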

[2] = target: p110γ (Homo sapiens, UniProt P48736); assay: Transcreener KINASE Assay, kinase inhibition of p110γ; conditions: for PI3Kγ IH % @ 1 uM: 1 uM test compound; for IC50: read-out: PI3Kγ IC50
Chain of p110γ (P48736 whole entry, canonical isoform): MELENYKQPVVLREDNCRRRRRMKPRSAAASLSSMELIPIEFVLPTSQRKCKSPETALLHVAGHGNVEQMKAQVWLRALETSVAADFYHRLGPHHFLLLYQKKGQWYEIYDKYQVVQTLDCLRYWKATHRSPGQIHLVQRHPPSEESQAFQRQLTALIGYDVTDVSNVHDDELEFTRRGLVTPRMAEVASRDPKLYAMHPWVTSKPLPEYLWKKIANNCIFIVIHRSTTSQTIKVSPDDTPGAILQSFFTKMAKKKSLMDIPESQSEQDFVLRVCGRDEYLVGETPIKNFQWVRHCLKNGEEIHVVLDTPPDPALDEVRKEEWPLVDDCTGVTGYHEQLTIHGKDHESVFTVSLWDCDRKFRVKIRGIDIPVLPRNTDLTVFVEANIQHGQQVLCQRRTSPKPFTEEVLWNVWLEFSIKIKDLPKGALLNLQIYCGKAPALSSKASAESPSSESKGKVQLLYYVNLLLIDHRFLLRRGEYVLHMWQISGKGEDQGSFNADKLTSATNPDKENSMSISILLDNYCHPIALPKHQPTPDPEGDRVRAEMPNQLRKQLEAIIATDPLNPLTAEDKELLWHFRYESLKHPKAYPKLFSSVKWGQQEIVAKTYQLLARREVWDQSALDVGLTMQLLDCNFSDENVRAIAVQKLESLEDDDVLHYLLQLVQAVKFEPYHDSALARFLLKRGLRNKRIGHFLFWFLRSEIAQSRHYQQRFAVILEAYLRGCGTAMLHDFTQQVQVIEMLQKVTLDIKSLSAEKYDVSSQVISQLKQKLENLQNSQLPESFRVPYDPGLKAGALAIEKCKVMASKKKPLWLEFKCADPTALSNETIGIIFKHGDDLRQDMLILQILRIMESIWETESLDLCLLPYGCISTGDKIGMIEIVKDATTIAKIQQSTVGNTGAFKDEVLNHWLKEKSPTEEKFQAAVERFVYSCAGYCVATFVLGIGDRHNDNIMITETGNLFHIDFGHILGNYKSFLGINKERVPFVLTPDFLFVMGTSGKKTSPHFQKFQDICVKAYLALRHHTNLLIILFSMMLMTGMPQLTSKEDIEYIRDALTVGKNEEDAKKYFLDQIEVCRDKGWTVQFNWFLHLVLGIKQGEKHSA
In short: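 Recombinant PI3K isoform complexes were tested in a two-step endpoint ADP-detection assay. Kinase reaction ran 80 min at room temperature, followed by 60 min with ADP detection mix. Far-red competitive fluorescence polarization immunoassay read-out; IC50s fitted from the FP data.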

[3] = target: p110δ/p85α (Homo sapiens, UniProt O00329); assay: Transcreener KINASE Assay, kinase inhibition of p110δ/p85α; conditions: for PI3Kδ IH % @ 1 uM: 1 uM test compound; for IC50: read-out: PI3Kδ IC50
Chain of p110δ/p85α (O00329 whole entry): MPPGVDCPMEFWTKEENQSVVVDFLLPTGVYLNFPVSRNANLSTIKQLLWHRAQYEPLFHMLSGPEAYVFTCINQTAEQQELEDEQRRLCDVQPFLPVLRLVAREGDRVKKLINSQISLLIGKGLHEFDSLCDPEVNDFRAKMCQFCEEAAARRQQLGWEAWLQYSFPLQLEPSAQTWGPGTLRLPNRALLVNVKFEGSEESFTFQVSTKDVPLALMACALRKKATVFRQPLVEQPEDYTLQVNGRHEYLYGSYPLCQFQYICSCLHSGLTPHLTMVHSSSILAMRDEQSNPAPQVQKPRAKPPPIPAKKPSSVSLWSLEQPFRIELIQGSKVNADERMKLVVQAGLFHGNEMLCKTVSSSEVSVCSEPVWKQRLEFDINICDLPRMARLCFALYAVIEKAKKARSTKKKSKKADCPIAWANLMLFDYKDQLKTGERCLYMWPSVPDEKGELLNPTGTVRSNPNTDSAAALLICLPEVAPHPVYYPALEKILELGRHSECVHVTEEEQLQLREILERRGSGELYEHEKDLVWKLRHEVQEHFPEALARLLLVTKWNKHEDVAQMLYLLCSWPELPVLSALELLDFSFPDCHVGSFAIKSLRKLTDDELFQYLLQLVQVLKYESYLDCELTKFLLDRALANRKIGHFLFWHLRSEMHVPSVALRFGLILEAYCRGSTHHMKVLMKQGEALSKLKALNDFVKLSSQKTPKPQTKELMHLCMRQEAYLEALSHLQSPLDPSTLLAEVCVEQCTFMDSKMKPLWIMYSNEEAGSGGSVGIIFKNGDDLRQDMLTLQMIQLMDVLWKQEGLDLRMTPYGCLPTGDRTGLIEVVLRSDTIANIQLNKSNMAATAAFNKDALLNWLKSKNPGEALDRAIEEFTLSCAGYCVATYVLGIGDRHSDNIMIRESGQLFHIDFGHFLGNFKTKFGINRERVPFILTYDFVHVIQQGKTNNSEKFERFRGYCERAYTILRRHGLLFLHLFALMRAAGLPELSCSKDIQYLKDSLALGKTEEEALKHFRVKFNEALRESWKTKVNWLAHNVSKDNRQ
Chain of p110δ/p85α (P27986 whole entry partner): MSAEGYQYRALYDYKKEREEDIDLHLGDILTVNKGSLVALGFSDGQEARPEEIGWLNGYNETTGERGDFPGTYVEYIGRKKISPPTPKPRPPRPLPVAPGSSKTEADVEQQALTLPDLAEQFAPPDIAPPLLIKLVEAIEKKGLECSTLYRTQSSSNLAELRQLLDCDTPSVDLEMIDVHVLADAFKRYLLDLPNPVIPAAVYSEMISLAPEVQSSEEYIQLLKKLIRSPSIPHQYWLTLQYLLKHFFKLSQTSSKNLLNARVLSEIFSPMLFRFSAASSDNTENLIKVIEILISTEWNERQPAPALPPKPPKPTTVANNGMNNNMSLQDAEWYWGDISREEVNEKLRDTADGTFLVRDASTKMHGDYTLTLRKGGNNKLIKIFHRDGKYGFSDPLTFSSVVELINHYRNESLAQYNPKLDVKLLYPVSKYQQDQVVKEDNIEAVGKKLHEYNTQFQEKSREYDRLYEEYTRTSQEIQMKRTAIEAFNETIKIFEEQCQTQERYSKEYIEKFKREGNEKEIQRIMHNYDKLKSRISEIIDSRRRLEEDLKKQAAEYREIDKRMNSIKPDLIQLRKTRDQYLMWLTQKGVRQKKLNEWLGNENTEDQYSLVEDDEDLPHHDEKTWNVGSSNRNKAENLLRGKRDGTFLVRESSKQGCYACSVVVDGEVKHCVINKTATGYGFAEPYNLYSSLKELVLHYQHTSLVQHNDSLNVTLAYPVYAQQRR
In short: as §1

Chain of p110β/p85α (P42338 whole entry): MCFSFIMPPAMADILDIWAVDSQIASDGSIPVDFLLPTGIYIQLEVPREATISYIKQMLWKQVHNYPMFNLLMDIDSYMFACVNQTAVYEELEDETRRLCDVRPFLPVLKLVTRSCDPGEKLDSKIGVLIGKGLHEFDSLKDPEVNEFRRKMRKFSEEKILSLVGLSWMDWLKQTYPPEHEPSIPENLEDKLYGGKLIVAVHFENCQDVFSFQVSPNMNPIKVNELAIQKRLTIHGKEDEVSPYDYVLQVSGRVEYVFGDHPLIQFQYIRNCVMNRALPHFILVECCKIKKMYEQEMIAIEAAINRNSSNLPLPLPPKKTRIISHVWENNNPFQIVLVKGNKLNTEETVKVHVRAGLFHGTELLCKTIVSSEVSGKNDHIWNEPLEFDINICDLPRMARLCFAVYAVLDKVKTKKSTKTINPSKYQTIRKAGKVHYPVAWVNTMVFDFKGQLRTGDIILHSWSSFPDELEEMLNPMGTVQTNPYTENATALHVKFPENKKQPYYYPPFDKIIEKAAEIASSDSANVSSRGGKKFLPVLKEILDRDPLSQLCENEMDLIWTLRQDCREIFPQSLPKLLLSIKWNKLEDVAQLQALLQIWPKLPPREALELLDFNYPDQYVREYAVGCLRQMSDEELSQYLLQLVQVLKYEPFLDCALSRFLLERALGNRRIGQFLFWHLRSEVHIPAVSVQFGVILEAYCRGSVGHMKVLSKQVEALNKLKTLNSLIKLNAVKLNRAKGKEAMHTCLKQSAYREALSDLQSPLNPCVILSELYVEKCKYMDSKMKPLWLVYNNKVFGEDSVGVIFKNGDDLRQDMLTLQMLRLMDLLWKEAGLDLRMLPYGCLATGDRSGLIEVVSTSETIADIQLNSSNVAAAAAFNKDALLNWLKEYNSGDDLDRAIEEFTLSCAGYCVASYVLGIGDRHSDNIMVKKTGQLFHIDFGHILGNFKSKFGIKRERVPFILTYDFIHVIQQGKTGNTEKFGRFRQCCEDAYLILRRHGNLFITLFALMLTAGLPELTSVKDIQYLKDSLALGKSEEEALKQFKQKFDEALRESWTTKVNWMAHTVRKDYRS
Chain of p110β/p85α (P27986 2-724 partner): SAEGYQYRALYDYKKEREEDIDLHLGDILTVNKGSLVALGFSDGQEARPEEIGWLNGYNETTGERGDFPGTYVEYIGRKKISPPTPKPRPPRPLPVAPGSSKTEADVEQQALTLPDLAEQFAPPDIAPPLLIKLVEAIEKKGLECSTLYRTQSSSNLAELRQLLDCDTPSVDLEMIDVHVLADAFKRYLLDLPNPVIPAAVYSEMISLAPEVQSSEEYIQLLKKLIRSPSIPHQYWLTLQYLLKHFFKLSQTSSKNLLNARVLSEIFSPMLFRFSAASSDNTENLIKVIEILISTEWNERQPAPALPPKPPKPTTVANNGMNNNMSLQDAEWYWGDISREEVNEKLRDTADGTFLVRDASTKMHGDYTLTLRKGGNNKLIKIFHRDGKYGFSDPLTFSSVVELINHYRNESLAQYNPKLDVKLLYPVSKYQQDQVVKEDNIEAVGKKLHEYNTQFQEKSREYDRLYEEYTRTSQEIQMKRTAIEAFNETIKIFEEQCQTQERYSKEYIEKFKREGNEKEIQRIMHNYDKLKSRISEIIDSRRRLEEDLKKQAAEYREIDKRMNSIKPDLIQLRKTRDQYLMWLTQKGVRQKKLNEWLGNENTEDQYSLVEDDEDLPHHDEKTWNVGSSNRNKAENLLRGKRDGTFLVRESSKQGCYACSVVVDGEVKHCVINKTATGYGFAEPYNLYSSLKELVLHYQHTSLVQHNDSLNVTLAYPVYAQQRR

PI3Kβ IH % @ 1 uM [1] | IC50 [1] | PI3Kγ IH % @ 1 uM [2] | PI3Kδ IH % @ 1 uM [3] | IC50 [3] | IC50 [2] | Compound
69.1% | 191 nM | 92.0% | 98.6% | 2 nM |  | CC(=O)c1c[nH]c2ncnc(N3CCC[C@H]3c3nn4ccc(Cl)c4c(=O)n3-c3cccc(F)c3)c12 [Compound 210]
88.3% | 51 nM | 92.2% | 98.4% | 0.5 nM |  | CC(=O)c1c[nH]c2ncnc(N3CCC[C@H]3c3nn4ccc(Cl)c4c(=O)n3-c3ccccc3)c12 [Compound 211]
32.8% |  | 88.1% | 98.5% | 52 nM | 135 nM | Nc1ncc(F)c(N2CCC[C@H]2c2nn3ccc(Cl)c3c(=O)n2-c2ccccc2)n1 [Compound 215]
85.0% | 165 nM | 95.7% | 97.3% | 2 nM |  | CC(=O)c1c[nH]c2ncnc(N3CCC[C@H]3c3nn4ccc(F)c4c(=O)n3-c3ccccc3)c12 [Compound 218]
75.1% | 358 nM | 87.4% | 98.4% | 3 nM | 14 nM | C[S+]([O-])c1c[nH]c2ncnc(N3CCC[C@H]3c3nn4ccc(F)c4c(=O)n3-c3ccccc3)c12 (stereo partly drawn) [Compound 219]
25.1% |  | 54.8% | 84.8% | 242 nM |  | O=c1c2c(Cl)ccn2nc([C@@H]2CCCN2c2ncnc3[nH]nnc23)n1-c1ccccc1 [Compound 220]
16.3% |  | 88.6% | 68.0% |  | 24 nM | CSc1n[nH]c2ncnc(N3CCC[C@H]3c3nn4ccc(Cl)c4c(=O)n3-c3ccccc3)c12 [Compound 221]
40.5% |  | 88.1% | 43.0% |  | 21 nM | CSc1n[nH]c2ncnc(N3CC[C@H]3c3nn4ccc(Cl)c4c(=O)n3-c3ccccc3)c12 [Compound 222]
96.3% | 54 nM | >100% | >100% | 1 nM | 5 nM | N#Cc1c[nH]c2ncnc(N3C[C@@H](F)C[C@H]3c3nn4ccc(F)c4c(=O)n3-c3ccccc3)c12 [Compound 225]
41.8% |  | >100% | 98.7% | 9 nM | 30 nM | COCCNC(=O)c1c[nH]c2ncnc(N3CCC[C@H]3c3nn4ccc(Cl)c4c(=O)n3-c3ccccc3)c12 [Compound 226]
13.8% |  | 59.9% | 74.6% | 176 nM |  | COCCNC(=O)c1c[nH]c2ncnc(N3CC[C@H]3c3nn4ccc(Cl)c4c(=O)n3-c3ccccc3)c12 [Compound 228]
75.2% | 280 nM | 87.3% | >100% | 3 nM | 7 nM | N#Cc1cnc(N)nc1N1CCC[C@H]1c1nn2ccc(F)c2c(=O)n1-c1ccccc1 [Compound 230]
59.8% |  | >100% | 98.7% | 18 nM | 75 nM | Cc1nc(N2CCC[C@H]2c2nn3ccc(F)c3c(=O)n2-c2ccccc2)c2nc[nH]c2n1 [Compound 239]

Second part, the compound before the results:

Compound | PI3Kβ IH % @ 1 uM [1] | IC50 [1] | PI3Kγ IH % @ 1 uM [2] | PI3Kδ IH % @ 1 uM [3] | IC50 [3] | IC50 [2]
N#Cc1cnc(N)nc1N1CC[C@H]1c1nn2ccc(Cl)c2c(=O)n1-c1ccccc1 [Compound 212] | 37.0% |  | >100% | 95.3% | 12 nM | 
O=c1c2c(Cl)ccn2nc([C@@H]2C[C@H](F)CN2c2ncnc3[nH]cnc23)n1-c1cccc(F)c1 [Compound 214] | 65.7% | 271 nM | >100% | 99.7% | 1 nM | 12 nM
CC(=O)c1c[nH]c2ncnc(N3C[C@@H](F)C[C@H]3c3nn4ccc(Cl)c4c(=O)n3-c3cccc(F)c3)c12 [Compound 216] | 65.1% |  | 91.8% | 96.5% | 2 nM | 3 nM
Nc1ncc(Cl)c(N2CC[C@H]2c2nn3ccc(Cl)c3c(=O)n2-c2ccccc2)n1 [Compound 223] | 22.9% |  | 71.6% | 81.0% | 59 nM | 
C#Cc1cnc(N)nc1N1CC[C@H]1c1nn2ccc(Cl)c2c(=O)n1-c1ccccc1 [Compound 224] | 22.7% |  | >100% | 85.9% | 60 nM | 
N#Cc1cnc(N)nc1N1C[C@@H](F)C[C@H]1c1nn2ccc(F)c2c(=O)n1-c1ccccc1 [Compound 227] | 59.6% |  | >100% | >100% | 5 nM | 18 nM
N#Cc1cnc(N)nc1N1C[C@@H](F)C[C@H]1c1nn2ccc(Cl)c2c(=O)n1-c1ccccc1 [Compound 229] | 81.5% | 262 nM | 90.4% | 97.6% | 3 nM | 2 nM
N#Cc1cnc(N)nc1N1CCC[C@H]1c1nn2ccc(Cl)c2c(=O)n1-c1ccc(F)cc1 [Compound 231] | 80.5% | 197 nM | 96.8% | 98.1% | 9 nM | 4 nM
N#Cc1cnc(N)nc1N1CCC[C@H]1c1nn2ccc(Cl)c2c(=O)n1-c1cccc(F)c1 [Compound 232] | 63.4% |  | >100% | >100% | 6 nM | 14 nM
C[C@H]1CCN(c2ncnc3[nH]cc(C#N)c23)C1c1nn2ccc(Cl)c2c(=O)n1-c1ccccc1 (stereo partly drawn) [Compound 233] | >100% |  | >100% | >100% |  | 
C[C@H]1CCN(c2ncnc3[nH]cnc23)C1c1nn2ccc(Cl)c2c(=O)n1-c1ccccc1 (stereo partly drawn) [Compound 234] | 83.4% |  | >100% | >100% |  | 
C[C@H]1CCN(c2nc(N)ncc2C#N)C1c1nn2ccc(Cl)c2c(=O)n1-c1ccccc1 (stereo partly drawn) [Compound 236] | 79.8% |  | 94.9% | >100% |  | 
C[C@H]1CN(c2ncnc3[nH]cnc23)C1c1nn2ccc(Cl)c2c(=O)n1-c1ccccc1 (stereo partly drawn) [Compound 237] | 37.6% |  | 86.3% | >100% | 14 nM | 35 nM
C#Cc1cnc(N)nc1N1CCC[C@H]1c1nn2ccc(Cl)c2c(=O)n1-c1ccccc1 [Compound 238] | 33.8% |  | >100% | >100% | 14 nM | 18 nM
Nc1ncc([N+](=O)[O-])c(N2CCC[C@H]2c2nn3ccc(Cl)c3c(=O)n2-c2ccccc2)n1 [Compound 240] | 45.0% |  | >100% | 98.1% | 34 nM | 36 nM
Nc1nc2c(c(N3CC[C@H]3c3nn4ccc(Cl)c4c(=O)n3-c3ccccc3)n1)C(=O)CCN2 [Compound 241] | 31.9% |  | 98.7% | 95.3% | 32 nM | 14 nM
